From PubChem BioAssay (NCI)
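The compound was tested at five concentrations on cells cultured in 96-well plates, with a 48-hour exposure period. Abbreviation: GI50, concentration required for 50% inhibition of growth. The concentration for full growth arrest is given as TGI.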

Columns and labels:
Assay in all cases: DTP human tumour cell line panel, 48 h
[1] = system: A498 renal
[2] = system: OVCAR-4 ovarian
[3] = system: HOP-92 NSCLC
[4] = system: SW-620 colon
[5] = system: HOP-62 NSCLC
[6] = system: 786-0 renal
[7] = system: SK-OV-3 ovarian
[8] = system: CCRF-CEM leukemia
[9] = system: HT29 colon
[10] = system: MOLT-4 leukemia
[11] = system: SK-MEL-28 melanoma
[12] = system: PC-3 prostate
[13] = system: NCI-H522 lung
[14] = system: EKVX NSCLC
[15] = system: T-47D breast
[16] = system: SNB-75 CNS
[17] = system: DU-145 prostate
[18] = system: MCF7 breast
[19] = system: RPMI-8226 leukemia
[20] = system: OVCAR-3 ovarian
[21] = system: LOX IMVI melanoma
[22] = system: NCI-H226 lung
[23] = system: COLO 205 colon
[24] = system: SNB-19 CNS
[25] = system: MDA-MB-435
[26] = system: TK-10 renal
[27] = system: K-562 leukemia
[28] = system: SK-MEL-2 melanoma
[29] = system: CAKI-1 renal
[30] = system: IGROV1 ovarian
[31] = system: HS 578T breast
[32] = system: NCI-H460 lung
[33] = system: BT-549 breast
[34] = system: ACHN renal
[35] = system: RXF 393 renal
[36] = system: KM12 colon
[37] = system: UACC-257 melanoma
[38] = system: NCI-H23 lung
[39] = system: HCC-2998 colon
[40] = system: SF-268 CNS
[41] = system: SN12C renal
[42] = system: SF-539 CNS
[43] = system: SF-295 CNS
[44] = system: HL-60(TB) leukemia
[45] = system: OVCAR-5 ovarian
[46] = system: MALME-3M melanoma
[47] = system: OVCAR-8 ovarian
[48] = system: M14 melanoma
[49] = system: HCT-15 colon
[50] = system: UO-31 renal
[51] = system: MDA-MB-231 breast
[52] = system: HCT-116 colon
[53] = system: A549 NSCLC
[54] = system: U251 CNS
[55] = system: NCI/ADR-RES ovarian
[56] = system: SK-MEL-5 melanoma
[57] = system: UACC-62 melanoma

## O=C1c2cc(Cl)ccc2-c2c1c1ccc([N+](=O)[O-])cc1c(=O)n2CCCBr
[1]
  GI50: 24.2 µM
  TGI: > 100 µM
[2]
  GI50: 78.2 µM
  TGI: > 100 µM
[3]
  GI50: 0.539 µM
  TGI: 8.98 µM
[4]
  GI50: 3.78 µM
  TGI: > 100 µM
[5]
  GI50: 2.46 µM
  TGI: 23 µM
[6]
  GI50: 2.62 µM
  TGI: 9.31 µM
[7]
  GI50: 7.79 µM
  TGI: > 100 µM
[8]
  GI50: 0.625 µM
  TGI: > 100 µM
[9]
  GI50: 12.5 µM
  TGI: > 100 µM
[10]
  GI50: 1.84 µM
  TGI: 8.04 µM
[11]
  GI50: 33.5 µM
  TGI: > 100 µM
[12]
  GI50: 19.2 µM
  TGI: > 100 µM
[13]
  GI50: 5.02 µM
  TGI: 43.4 µM
[14]
  GI50: > 100 µM
  TGI: > 100 µM
[15]
  GI50: 3.23 µM
  TGI: 33.8 µM
[16]
  GI50: 5.96 µM
  TGI: 64.2 µM
[17]
  GI50: 4 µM
  TGI: > 100 µM
[18]
  GI50: 4.61 µM
  TGI: > 100 µM
[19]
  GI50: 3.66 µM
  TGI: 96 µM
[20]
  GI50: 36.6 µM
  TGI: > 100 µM
[21]
  GI50: 2.37 µM
  TGI: 24 µM
[22]
  GI50: 11.5 µM
  TGI: > 100 µM
[23]
  GI50: 3.37 µM
  TGI: > 100 µM
[24]
  GI50: 3.74 µM
  TGI: > 100 µM
[25]
  GI50: 14.9 µM
  TGI: > 100 µM
[26]
  GI50: 61.9 µM
  TGI: > 100 µM
[27]
  GI50: 4.46 µM
  TGI: > 100 µM
[28]
  GI50: 82.6 µM
  TGI: > 100 µM
[29]
  GI50: 1.72 µM
  TGI: 19.3 µM
[30]
  GI50: 5.77 µM
  TGI: 90.8 µM
[31]
  GI50: > 100 µM
  TGI: > 100 µM
[32]
  GI50: 0.931 µM
  TGI: > 100 µM
[33]
  GI50: 34.2 µM
  TGI: > 100 µM
[34]
  GI50: 2.42 µM
  TGI: 7.25 µM
[35]
  GI50: 17.6 µM
  TGI: > 100 µM
[36]
  GI50: 20.8 µM
  TGI: > 100 µM
[37]
  GI50: 41.4 µM
  TGI: > 100 µM
[38]
  GI50: 8.27 µM
  TGI: > 100 µM
[39]
  GI50: 42.6 µM
  TGI: > 100 µM
[40]
  GI50: 1.65 µM
  TGI: > 100 µM
[41]
  GI50: 2.5 µM
  TGI: 8.89 µM
[42]
  GI50: 3.94 µM
  TGI: > 100 µM
[43]
  GI50: 2.63 µM
  TGI: > 100 µM
[44]
  GI50: 1.26 µM
  TGI: 5.71 µM
[45]
  GI50: > 100 µM
  TGI: > 100 µM
[46]
  GI50: 9.32 µM
  TGI: 82 µM
[47]
  GI50: 8.35 µM
  TGI: > 100 µM
[48]
  GI50: 3.91 µM
  TGI: 64.2 µM
[49]
  GI50: 31.2 µM
  TGI: > 100 µM
[50]
  GI50: 2.64 µM
  TGI: 31 µM
[51]
  GI50: > 100 µM
  TGI: > 100 µM
[52]
  GI50: 3.48 µM
  TGI: > 100 µM
[53]
  GI50: 5.85 µM
  TGI: > 100 µM
[54]
  GI50: 3.07 µM
  TGI: > 100 µM
[55]
  GI50: 5.01 µM
  TGI: > 100 µM
[56]
  GI50: 3.21 µM
  TGI: 24.3 µM
[57]
  GI50: 3.45 µM
  TGI: 39.8 µM
